Experimental data taken from patent publication US20250161338A1, “Compounds for Anti-aging Intervention” (AGENCY FOR SCIENCE, TECHNOLOGY AND RESEARCH, priority 2022, published 2025).
Entries after “also recorded” stand apart in the source; their conditions may differ.

Experiments:
Type in all cases: cell-based
[1] = test system: wild-type Saccharomyces cerevisiae CEN.PK113-7D yeast strain; experiment: Chronological lifespan analysis in yeast (PI, outgrowth, spotting)
Procedure: (§1) Yeast strain was recovered from frozen glycerol stock at 30° C. on YPD agar medium. Yeast was left to propagate in SD medium overnight at 30° C. with shaking at 220 revolutions per minute (rpm). Cells propagated overnight were diluted to a starting optical density at 600 nm (OD600) of approximately 0.2 in fresh SD medium to begin the chronological lifespan (CLS) experiments.
CLS experiments were performed in 96-well plates with 200 μL yeast culture. Cellular inoculums were transferred into 96-well plates containing serially double-diluted concentrations (0 to 10 nM) of rapamycin. […] Cells were incubated at 30° C., and the growth was measured at different time points. The growth time point 72 hours was considered as Day 1 for the CLS assay. Cell survival was quantified at various age time points by three different approaches: (i) PI fluorescence-based method, (ii) outgrowth in YPD liquid medium, and (iii) spotting assay (FIG. 1).
Yeast cells (40 μL) from different age time points were transferred into a second 96-well plate (different to the 96-well plate in which the CLS analysis as outlined above was performed). Cells were washed and incubated in 100 μL 1×phosphate buffered saline (PBS) with propidium iodide (PI) (5 μg/mL) for 15 minutes in the dark. Positive and negative control samples were included for quantitative analysis. Positive control (cells boiled at 100° C. for 15 minutes) was PI-stained and processed in the same 96-well plate. Samples without PI-stained cells served as the negative control. After incubation, cells were washed and resuspended in 100 μL PBS. The fluorescence reading of the samples (excitation and emission wavelengths at 535 nm and 617 nm, respectively) and OD600 were measured with a microplate reader (BioTek, Winooski, Vermont, United States). The fluorescence intensity of each sample was normalized with OD600. The background fluorescence signal of the unstained negative sample was subtracted from the normalized fluorescence intensity of each sample. The obtained fluorescence intensity of the positive control (boiled dead cells) was considered 0% cell survival. Cell death was validated by allowing the boiled dead cells to grow in medium. Cell survival at different age time points of samples were calculated by normalizing the fluorescence intensity with positive control sample (boiled cells).
Yeast stationary culture (3 μL) of different age time points were transferred to a second 96-well plate, containing 200 μL YPD medium, and incubated for 24 hours at 30° C. Outgrowth (OD600) of aged cells was measured by the microplate reader. Quantification of cell survival for each age point was determined as relative to Day 1 (considered 100% cell survival). This quantification was performed by using the formula,
Yeast stationary culture (3 μL) of different age time points were spotted onto a YPD agar plate and incubated for 48 hours at 30° C. The outgrowth of aged cells on the YPD agar plate was photographed using the Bio-Rad GelDoc Imaging System (Bio-Rad, Hercules, California, United States).

HEK293 cells = experiment: CLS in human cells, propidium iodide fluorescence-based method (HEK293); settings: sixth day after seeding
Procedure: Human embryonic kidney 293 (HEK293) cells (ATCC, Manassas, Virginia, United States of America), lung epithelial (A549) cells (ATCC, Manassas, Virginia, United States of America) and fibroblast (IMR90) cells (ATCC, Manassas, Virginia, United States of America) were cultured in the standard D10 medium, consisting of high-glucose DMEM (HyClone, Cytiva, Marlborough, Massachusetts, USA) supplemented with 10% Fetal Bovine Serum (FBS) (Gibco™, ThermoFisher Scientific, Waltham, Massachusetts, USA) and 1% Penicillin Streptomycin Solution (Gibco™, ThermoFisher Scientific, Waltham, Massachusetts, USA). All cells were cultured in a humidified incubator with 5% CO2 at 37° C.
The stock solution of rapamycin, hemin, 5-fluorouracil, atorvastatin, and methotrexate was prepared in DMSO, followed by serial dilution to form various concentrations used in the experiment. The final DMSO concentration was kept at 0.05% in all experiments. The stock solution of 2,5-anhydro-D-mannitol was prepared in D10 medium. The chemical library used in screening were tested at 1 μM concentrations. Controls used were the same as the solvent applied, DMSO or water.
The assay was performed by preparing the cells with PI (2 μg/mL or 5 μg/mL) in a D10 medium. […] At different age time points, reading was taken with a Synergy MX microplate reader (BioTek, Winooski, Vermont, United States) at 535 nm excitation and 617 nm emission.

[2] = test system: wild-type Saccharomyces cerevisiae CEN.PK113-7D yeast strain; experiment: Yeast cell growth (OD600) in SD medium; settings: 0 to 8 mM; 24, 48 and 72 hours
Procedure: as §1
CLS experiments were performed in 96-well plates with 200 μL yeast culture. Cellular inoculums were transferred into 96-well plates containing serially double-diluted concentrations (0 to 10 nM) of rapamycin. Cellular inoculum was transferred into 96-well plates containing serially double-diluted concentrations (0 to 8 mM) of 2,5-anhydro-D-mannitol, D-fructose, D-mannitol, D-maltose, and D-sorbitol in SD medium. Cells were incubated at 30° C., and the growth was measured at different time points. The growth time point 72 hours was considered as Day 1 for the CLS assay. Cell survival was quantified at various age time points by three different approaches: (i) PI fluorescence-based method, (ii) outgrowth in YPD liquid medium, and (iii) spotting assay (FIG. 1).
Firstly, the effect of 2,5-AM on cell growth was determined. Yeast cells were incubated with varying concentrations of 2,5-AM in the SD medium. Cell growth was measured at different time points (24 hours, 48 hours, and 72 hours). […] Then, the survival of chronologically aged cells supplemented with different concentrations of 2,5-AM was measured using the PI fluorescence method. At each chronological age point, a 3 μL culture was transferred to a second 96-well plate containing 200 μL YPD medium. The 72-hour growth culture was considered Day 1 for the CLS analysis. The viability fraction was calculated, and a survival graph was plotted for different chronological age time points (FIG. 5). […] The survival of aged cells supplemented with 2,5-AM (4 mM and 8 mM) on Day 4 was approximately 80%. However, the survival of aged cells without 2,5-AM was approximately 50%. On Day 7, survival of 2,5-AM supplemented aged cells was approximately 75%. However, the survival of aged cells without 2,5-AM was reduced to less than 20%.
Firstly, the effect of fructose, mannitol, maltose, and sorbitol on cell growth was tested. Yeast cells were incubated with various concentrations of fructose, mannitol, maltose, and sorbitol similar to 2,5-AM in the SD medium. […] Next, the survival of chronologically aged cells on day 1, day 7, day 14, and day 21 was measured. […] Aged cells supplemented with 2,5-AM (8 mM) survived (approximately 65%) on Day 21. However, the survival of aged cells without 2,5-AM supplementation was less than 10%.

OC[C@H]1O[C@H](CO)[C@@H](O)[C@@H]1O [2,5-AM, 2,5-anhydro-D-mannitol]
effect on yeast CLS ([1]; 0 to 8 mM in SD medium, up to day 21): extended the CLS in a concentration-dependent manner; also recorded: extended the lifespan even at the late stage of chronological aging
survival of aged cells ([1]; 8 mM, Day 21, without compound less than 10%): approximately 65%
effect on yeast CLS ([1]; very low concentrations (2 mM)): increased CLS
more live cells compared to the untreated group (HEK293 cells; 2.5 mM): 34.39%
more live cells compared to the untreated group (HEK293 cells; 5 mM): 58.7%
cell growth [2]: reached the same saturation level after 24 hours; also recorded: did not affect cell growth
